Measured values from patent US20220127297A1, “Novel Antibacterial 3"-Derivatives Of 4,6-Disubstituted 2,5-Dideoxystreptamine Aminoglycoside Antibiotics” (AGILeBiotics B.V., priority 2018, published 2022).
Values after ≈ are worked out from the molar mass of the structure shown. Like-named read-outs stand apart in the source and are kept apart here.

Test system: K. pneumoniae DSM 26371
Assay: MIC 50, broth micro-dilution, DSM strains
Assay type: cell-based, Klebsiella pneumoniae
Text: 3.2 Against Selected Bacteria of the ESKAPE Panel and Enterococcus faecalis (DSM Strains)
Tested reference compounds. Amikacin sulfate (Cat. No. 01693, Chem-Impex), Gentamicin sulfate (Cat. No. G4918, Sigma Aldrich).
Microbial strains. Enterococcus faecalis DSM 2570, Klebsiella pneumoniae DSM 26371, Acinetobacter baumannii DSM 105126, Enterobacter cloacae 3MRGN (clinical bronchial aspirate isolate).
Culture media and equipment. BBL™ Mueller Hinton Broth 2 (Lot. BCBW1143, Cat. No. 70192, Sigma); Trypcase Soy Blood-agar plates (Cat. No. 43001, Biomérieux); Cryoinstant (contains 15% glycerol; Cat. No. 822070ZA, VWR International); GasPak™ EZ Standard Incubation Container (Cat. No. 260671, Becton Dickinson); GasPak™ EZ Campy Container System Sachets (Cat. No. 260680, Becton Dickinson); 96-well deep well plate, 1 mL (Cat. No. 0030506.200, Eppendorf); Plate lid (Cat. No. 0030131.525, Eppendorf); 96-well plate, F-bottom (Cat. No. 260860, Nunc); Incubator (Sartorius Certomat BS-1); Laminar flow (Heraeus HS12); UV/VIS meter (Perkin Elmer Lambda Bio+); Platereader (Tecan Infinite M200 Pro).
Compound preparation. Compounds were prepared in MH2 media at a concentration of 5 mM and stored at 4° C. For testing, solutions of 128 μM were prepared in MH2, for tests against E. faecalis a solution of 512 μM was prepared. Out of these working solutions, 400 μL was transferred to wells in the first column of 96-well deep well plates. Each compound was transferred in triplicate. Plates were previously filled with 200 μL of MH2 media in all wells except for the wells in the first column. After compound and antibiotic addition, the compounds were serial two-fold diluted by transferring 200 μL from the first to the second column, then from the second to the third column and so on. Finally, 200 μL was removed from the last column.
Inoculum preparation. Microorganisms used were all revived from 15% glycerol storage in Croinstant tubes at −28° C. by plating them on blood agar plates. A. baumanni, and E. cloacae were grown aerobically at 37° C., E. faecalis was grown microaerophilically at 37° C., and K. pneumoniae was grown aerobically at 37° C. Plates were stored at 4° C. for up to two weeks, after which new plates were prepared from −28° C. A single colony was inoculated in MH2 media and grown at 37° C. and 200 rpm to an optical density (measured by UV/Vis spectroscopy) of 0.6-0.8 at 600 nm. Out of these suspensions, actual inoculums were prepared by diluting them to an optical density of 0.1 in MH2 media. From these inoculums, 200 μL was transferred to each well, resulting in a final compound concentration range of 64 μM-31.3 nM for, K. pneumoniae, A. baumanni, and E. cloacae, and 256 μM-125 nM for E. faecalis. Plates inoculated with E. faecalis were placed inside a GasPak™ Container System with GasPak™ Campy Container System sachets. All plates were incubated at 200 rpm for 18 h under the microorganism culturing conditions mentioned above.
MIC determination. After 18 h of growth, 200 μL was transferred to a 96-well F-bottom plate. The optical density was determined by a plate reader at 600 nm, with 10 s shaking before reading. Triplicate measurements were averaged, and a growth curve was plotted in Excel. The first column in which the growth reached half the value of maximum growth was determined as the MIC50 value for that particular compound.
MIC50. The MIC50 of a compound was assigned at which the bacterial growth reached half the value of maximum growth.

[1] = Klebsiella pneumoniae, DSM26371, K. pneumoniae DSM 26371, read-out: MIC 50

| Structure (SMILES) | MIC50 (K. pneumoniae DSM 26371) | MIC50 [1] |
| --- | --- | --- |
| NCC[C@H](O)C(=O)N[C@@H]1C[C@H](N)[C@@H](O[C@H]2O[C@H](CN)[C@@H](O)[C@@H](O)[C@H]2O)[C@H](O)[C@H]1O[C@H]1O[C@H](CO)[C@@H](O)[C@H](N)[C@H]1O [ABX3002, 3′Epi-KanaA-AHB] | 8 µM (≈ 4.68 µg/mL) | – |
| N=C(N)NC1[C@@H](O)C(OC2[C@@H](F)[C@H](O[C@H]3OC(CN)[C@@H](O)[C@H](O)C3O)C(N)C[C@H]2NC(=O)[C@@H](O)CCN)O[C@H](CO)[C@H]1O (stereo partly drawn) [ABX3003, 3′epi-KanaA-AHB-F-Gua] | – | 0.5 µM (≈ 0.315 µg/mL) |
| NCCC(O)C(=O)NC1CC(N)C(OC2OC(CN)C(O)C(O)C2O)C(F)C1OC1OC(CO)C(O)C(N)C1O (stereo not drawn) [ABX3005, 3′Epi-KanaA-AHB-F] | 1 µM (≈ 0.588 µg/mL) | – |
| NCCC(O)C(=O)NC1CC(N)C(OC2OC(CN)C(O)C(O)C2N)C(O)C1OC1OC(CO)C(O)C(N)C1O (centres unmarked) [ABX4001, KanaB-AHB] | 0.5 µM (≈ 0.292 µg/mL) | – |
| NCC[C@H](O)C(=O)N[C@@H]1CC(N)[C@@H](O[C@H]2OC(CN)[C@@H](O)[C@@H](O)C2N)[C@H](O)C1OC1O[C@H](CO)[C@@H](O)C(N)[C@H]1O (stereo partly drawn) [ABX4002, 3′Epi-KanaB-AHB] | 1 µM (≈ 0.585 µg/mL) | – |
| NCC[C@H](O)C(=O)N[C@@H]1CC(N)[C@@H](O[C@H]2OC(CN)[C@@H](O)[C@@H](O)C2N)[C@H](F)C1OC1O[C@H](CO)[C@@H](O)C(N)[C@H]1O (stereo partly drawn) [ABX4003, 3′Epi-KanaB-AHB-F] | 0.5 µM (≈ 0.293 µg/mL) | – |
| N=C(N)NC1[C@@H](O)C(OC2[C@@H](F)[C@H](O[C@H]3OC(CN)[C@@H](O)[C@H](O)C3N)C(N)C[C@H]2NC(=O)[C@@H](O)CCN)O[C@H](CO)[C@H]1O (stereo partly drawn) [ABX4004, 3′epi-KanaB-AHB-F-Gua] | 0.25 µM (≈ 0.157 µg/mL) | – |
| N=C(N)N[C@@H]1[C@@H](O)[C@@H](O[C@@H]2[C@@H](O)[C@H](O[C@H]3O[C@H](CN)[C@@H](O)[C@@H](O)[C@H]3N)[C@@H](N)C[C@H]2NC(=O)[C@@H](O)CCN)O[C@H](CO)[C@H]1O [ABX4005, 3′Epi-KanaB-AHB-Gua] | 1 to 2 µM | – |
| N=C(N)NC1[C@@H](O)C(OC2[C@@H](F)[C@H](O[C@H]3OC(CN)[C@@H](O)[C@H](O)C3N)C(N)C[C@H]2NC(=O)[C@@H](O)CCN)O[C@H](CO)[C@H]1O (some centres unmarked) [ABX4006, KanaB-AHB-F-Gua] | – | 0.125 µM (≈ 0.0786 µg/mL) |
| NCCC(O)C(=O)NC1CC(N)C(OC2OC(CN)C(O)C(O)C2N)C(F)C1OC1OC(CO)C(O)C(N)C1O (centres unmarked) [ABX4007, KanaB-AHB-F] | 0.5 µM (≈ 0.293 µg/mL) | – |
| N=C(N)NC1[C@@H](O)C(OC2[C@@H](O)[C@H](O[C@H]3OC(CN)[C@@H](O)[C@H](O)C3N)C(N)C[C@H]2NC(=O)[C@@H](O)CCN)O[C@H](CO)[C@H]1O (some centres unmarked) [ABX4009, KanaB-AHB-Gua] | 1 µM (≈ 0.627 µg/mL) | – |
| NCC[C@H](O)C(=O)N[C@@H]1CC(N)[C@@H](O[C@H]2OC(CN)[C@@H](O)CC2N)[C@H](O)C1OC1O[C@H](CO)[C@@H](O)C(N)[C@H]1O (some centres unmarked) [ABX5004, Tobra-AHB] | 1 µM (≈ 0.569 µg/mL) | – |
| N=C(N)NC1[C@@H](O)C(OC2[C@@H](O)[C@H](O[C@H]3OC(CN)[C@@H](O)CC3N)C(N)C[C@H]2NC(=O)[C@@H](O)CCN)O[C@H](CO)[C@H]1O (some centres unmarked) [ABX5005, Tobra-AHB-Gua] | 0.25 µM (≈ 0.153 µg/mL) | – |
| N=C(N)NC1C(O)[C@@H](CO)OC(OC2C(F)[C@H](O[C@H]3OC(CN)[C@@H](O)CC3N)C(N)C[C@H]2NC(=O)[C@@H](O)CCN)[C@@H]1O (some centres unmarked) [ABX5006, Tobra-AHB-F-Gua] | – | < 0.25 µM |
| N=C(NCCN)NC1C(O)[C@@H](CO)OC(OC2C(F)[C@H](O[C@H]3OC(CN)[C@@H](O)CC3N)C(N)C[C@H]2NC(=O)[C@@H](O)CCN)[C@@H]1O (some centres unmarked) [ABX5020, Tobra-AHB-F-Gua-2-amino-ethyl] | – | 0.5 µM (≈ 0.328 µg/mL) |
| NCC[C@H](O)C(=O)N[C@@H]1CC(N)[C@@H](O[C@H]2OC(CN)[C@@H](O)CC2N)[C@H](F)C1OC1O[C@H](CO)[C@@H](O)C(N)[C@H]1O (some centres unmarked) [ABX5024, Tobra-AHB-F] | 1 µM (≈ 0.571 µg/mL) | – |
| CC(C)(C)CCNC(=N)NC1[C@@H](O)C(OC2[C@@H](F)[C@H](O[C@H]3OC(CN)[C@@H](O)CC3N)C(N)C[C@H]2NC(=O)[C@@H](O)CCN)O[C@H](CO)[C@H]1O (some centres unmarked) [ABX5025, Tobra-AHB-F-Gua 2-tBu-ethyl] | – | 0.5 µM (≈ 0.348 µg/mL) |
